# Measured values published in PubChem BioAssay AID248 (DTP/NCI, 2004).
# Where “and” joins values, the source holds several entries; their conditions need not be identical. Identical values can stand only once. Inconclusive results and toxic doses are left out.
# System: L1210 leukemia ip in BDF1 mice, survival T/C
# Test: NCI In Vivo Anticancer Drug Screen. Data for tumor model L1210 Leukemia (intraperitoneal) in B6D2F1 (BDF1) mice
# Settings: higher = longer survival
# In short: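 Value reflects the ratio of survival in compound-treated mice to survival in vehicle-treated controls, with both groups carrying the same transplanted tumor.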
compound,measurement,setting,value
COc1cc([C@@H]2c3cc4c(cc3[C@@H](OC3OC5COC(C)OC5C(O)C3O)[C@H]3COC(=O)[C@H]23)OCO4)cc(OC)c1O (stereo partly specified),T/C,"endpoint: mean survival time, dose: 1.8 mg/kg/injection, schedule: Q03HX016 (ip), vehicle: saline",292 % of control
same,T/C,"endpoint: mean survival time, dose: 1.8 mg/kg/injection, schedule: Q03HX024 (ip), vehicle: saline",315 % of control
same,T/C,"endpoint: mean survival time, dose: 2.0 mg/kg/injection, schedule: Q01DX009 (ip), vehicle: Klucel (hydroxypropylcellulose) (HPC)",161 % of control and 172 % of control
same,T/C,"endpoint: mean survival time, dose: 2.7 mg/kg/injection, schedule: Q03HX016 (ip), vehicle: saline",510 % of control
same,T/C,"endpoint: mean survival time, dose: 2.7 mg/kg/injection, schedule: Q03HX024 (ip), vehicle: saline",600 % of control
same,T/C,"endpoint: mean survival time, dose: 4.0 mg/kg/injection, schedule: Q01DX001 (sc), vehicle: Klucel (hydroxypropylcellulose) (HPC)",97 % of control
same,T/C,"endpoint: mean survival time, dose: 4.0 mg/kg/injection, schedule: Q01DX001 (sc), vehicle: clinical formulation",102 % of control
same,T/C,"endpoint: mean survival time, dose: 4.0 mg/kg/injection, schedule: Q01DX009 (ip), vehicle: Klucel (hydroxypropylcellulose) (HPC)",104 % of control and 196 % of control and 266 % of control
same,T/C,"endpoint: mean survival time, dose: 4.0 mg/kg/injection, schedule: Q01DX009 (sc), vehicle: clinical formulation",183 % of control
same,T/C,"endpoint: mean survival time, dose: 4.0 mg/kg/injection, schedule: Q03HX016 (ip), vehicle: saline",409 % of control
same,T/C,"endpoint: mean survival time, dose: 4.0 mg/kg/injection, schedule: Q03HX016 (oral), vehicle: Klucel (hydroxypropylcellulose) (HPC)",105 % of control
same,T/C,"endpoint: mean survival time, dose: 4.0 mg/kg/injection, schedule: Q03HX024 (ip), vehicle: saline",568 % of control
same,T/C,"endpoint: mean survival time, dose: 4.5 mg/kg/injection, schedule: Q03HX024 (ip), vehicle: saline",409 % of control
same,T/C,"endpoint: mean survival time, dose: 6.0 mg/kg/injection, schedule: Q03HX016 (ip), vehicle: saline",154 % of control
same,T/C,"endpoint: mean survival time, dose: 8.0 mg/kg/injection, schedule: Q01DX001 (sc), vehicle: Klucel (hydroxypropylcellulose) (HPC)",103 % of control
same,T/C,"endpoint: mean survival time, dose: 8.0 mg/kg/injection, schedule: Q01DX001 (sc), vehicle: clinical formulation",106 % of control
same,T/C,"endpoint: mean survival time, dose: 8.0 mg/kg/injection, schedule: Q01DX009 (sc), vehicle: clinical formulation",180 % of control
same,T/C,"endpoint: mean survival time, dose: 8.0 mg/kg/injection, schedule: Q03HX016 (oral), vehicle: Klucel (hydroxypropylcellulose) (HPC)",105 % of control
same,T/C,"endpoint: mean survival time, dose: 8.0 mg/kg/injection, schedule: Q04DX003 (ip), vehicle: Klucel (hydroxypropylcellulose) (HPC)",225 % of control
same,T/C,"endpoint: mean survival time, dose: 12.0 mg/kg/injection, schedule: Q03DX003 (ip), vehicle: saline",319 % of control
same,T/C,"endpoint: mean survival time, dose: 12.0 mg/kg/injection, schedule: Q04DX003 (ip), vehicle: saline",213 % of control
same,T/C,"endpoint: mean survival time, dose: 16.0 mg/kg/injection, schedule: Q01DX001 (sc), vehicle: Klucel (hydroxypropylcellulose) (HPC)",106 % of control
same,T/C,"endpoint: mean survival time, dose: 16.0 mg/kg/injection, schedule: Q01DX001 (sc), vehicle: clinical formulation",117 % of control
same,T/C,"endpoint: mean survival time, dose: 16.0 mg/kg/injection, schedule: Q01DX009 (sc), vehicle: Klucel (hydroxypropylcellulose) (HPC)",208 % of control
same,T/C,"endpoint: mean survival time, dose: 16.0 mg/kg/injection, schedule: Q01DX009 (sc), vehicle: clinical formulation",187 % of control
same,T/C,"endpoint: mean survival time, dose: 16.0 mg/kg/injection, schedule: Q03HX016 (oral), vehicle: Klucel (hydroxypropylcellulose) (HPC)",105 % of control
same,T/C,"endpoint: mean survival time, dose: 16.0 mg/kg/injection, schedule: Q08DX002 (ip), vehicle: Klucel (hydroxypropylcellulose) (HPC)",157 % of control
same,T/C,"endpoint: mean survival time, dose: 18.0 mg/kg/injection, schedule: Q03DX003 (ip), vehicle: saline",395 % of control
same,T/C,"endpoint: mean survival time, dose: 18.0 mg/kg/injection, schedule: Q04DX003 (ip), vehicle: saline",372 % of control
same,T/C,"endpoint: mean survival time, dose: 27.0 mg/kg/injection, schedule: Q03DX003 (ip), vehicle: saline",552 % of control
same,T/C,"endpoint: mean survival time, dose: 27.0 mg/kg/injection, schedule: Q04DX003 (ip), vehicle: saline",506 % of control
same,T/C,"endpoint: mean survival time, dose: 32.0 mg/kg/injection, schedule: Q01DX001 (sc), vehicle: Klucel (hydroxypropylcellulose) (HPC)",115 % of control
same,T/C,"endpoint: mean survival time, dose: 32.0 mg/kg/injection, schedule: Q01DX009 (oral), vehicle: Klucel (hydroxypropylcellulose) (HPC)",109 % of control
same,T/C,"endpoint: mean survival time, dose: 32.0 mg/kg/injection, schedule: Q03HX016 (oral), vehicle: Klucel (hydroxypropylcellulose) (HPC)",119 % of control
same,T/C,"endpoint: mean survival time, dose: 32.0 mg/kg/injection, schedule: Q04DX003 (oral), vehicle: Klucel (hydroxypropylcellulose) (HPC)",109 % of control
same,T/C,"endpoint: mean survival time, dose: 32.0 mg/kg/injection, schedule: Q08DX002 (ip), vehicle: Klucel (hydroxypropylcellulose) (HPC)",338 % of control
same,T/C,"endpoint: mean survival time, dose: 40.0 mg/kg/injection, schedule: Q03DX003 (ip), vehicle: saline",562 % of control
same,T/C,"endpoint: mean survival time, dose: 40.0 mg/kg/injection, schedule: Q04DX003 (ip), vehicle: saline",584 % of control
same,T/C,"endpoint: mean survival time, dose: 50.0 mg/kg/injection, schedule: Q01DX001 (ip), vehicle: Klucel (hydroxypropylcellulose) (HPC)",276 % of control
same,T/C,"endpoint: mean survival time, dose: 50.0 mg/kg/injection, schedule: Q01DX001 (ip), vehicle: saline",116 % of control
same,T/C,"endpoint: mean survival time, dose: 60.0 mg/kg/injection, schedule: Q03DX003 (ip), vehicle: saline",86 % of control
same,T/C,"endpoint: mean survival time, dose: 64.0 mg/kg/injection, schedule: Q01DX001 (oral), vehicle: Klucel (hydroxypropylcellulose) (HPC)",103 % of control
same,T/C,"endpoint: mean survival time, dose: 64.0 mg/kg/injection, schedule: Q01DX001 (sc), vehicle: clinical formulation",120 % of control
same,T/C,"endpoint: mean survival time, dose: 64.0 mg/kg/injection, schedule: Q03HX016 (oral), vehicle: Klucel (hydroxypropylcellulose) (HPC)",108 % of control
same,T/C,"endpoint: mean survival time, dose: 64.0 mg/kg/injection, schedule: Q04DX003 (oral), vehicle: Klucel (hydroxypropylcellulose) (HPC)",123 % of control
same,T/C,"endpoint: mean survival time, dose: 64.0 mg/kg/injection, schedule: Q08DX002 (ip), vehicle: Klucel (hydroxypropylcellulose) (HPC)",417 % of control
same,T/C,"endpoint: mean survival time, dose: 100.0 mg/kg/injection, schedule: Q01DX001 (ip), vehicle: Klucel (hydroxypropylcellulose) (HPC)",448 % of control
same,T/C,"endpoint: mean survival time, dose: 100.0 mg/kg/injection, schedule: Q01DX001 (ip), vehicle: saline",176 % of control
same,T/C,"endpoint: mean survival time, dose: 128.0 mg/kg/injection, schedule: Q01DX001 (oral), vehicle: Klucel (hydroxypropylcellulose) (HPC)",104 % of control and 106 % of control
same,T/C,"endpoint: mean survival time, dose: 128.0 mg/kg/injection, schedule: Q01DX001 (oral), vehicle: clinical formulation",109 % of control
same,T/C,"endpoint: mean survival time, dose: 128.0 mg/kg/injection, schedule: Q03HX016 (oral), vehicle: Klucel (hydroxypropylcellulose) (HPC)",118 % of control
same,T/C,"endpoint: mean survival time, dose: 128.0 mg/kg/injection, schedule: Q08DX002 (ip), vehicle: Klucel (hydroxypropylcellulose) (HPC)",119 % of control
same,T/C,"endpoint: mean survival time, dose: 256.0 mg/kg/injection, schedule: Q01DX001 (oral), vehicle: Klucel (hydroxypropylcellulose) (HPC)",104 % of control and 110 % of control
same,T/C,"endpoint: mean survival time, dose: 256.0 mg/kg/injection, schedule: Q01DX001 (oral), vehicle: clinical formulation",106 % of control
same,T/C,"endpoint: mean survival time, dose: 256.0 mg/kg/injection, schedule: Q01DX001 (sc), vehicle: Klucel (hydroxypropylcellulose) (HPC)",166 % of control
same,T/C,"endpoint: mean survival time, dose: 256.0 mg/kg/injection, schedule: Q01DX001 (sc), vehicle: clinical formulation",188 % of control
same,T/C,"endpoint: mean survival time, dose: 256.0 mg/kg/injection, schedule: Q01DX009 (oral), vehicle: Klucel (hydroxypropylcellulose) (HPC)",103 % of control
same,T/C,"endpoint: mean survival time, dose: 512.0 mg/kg/injection, schedule: Q01DX001 (oral), vehicle: Klucel (hydroxypropylcellulose) (HPC)",106 % of control and 118 % of control
same,T/C,"endpoint: mean survival time, dose: 512.0 mg/kg/injection, schedule: Q01DX001 (oral), vehicle: clinical formulation",165 % of control
same,T/C,"endpoint: mean survival time, dose: 512.0 mg/kg/injection, schedule: Q01DX009 (oral), vehicle: Klucel (hydroxypropylcellulose) (HPC)",91 % of control
same,T/C,"endpoint: mean survival time, dose: 1024.0 mg/kg/injection, schedule: Q01DX001 (oral), vehicle: Klucel (hydroxypropylcellulose) (HPC)",111 % of control
same,T/C,"endpoint: median survival time, dose: 2.0 mg/kg/injection, schedule: Q01DX009 (ip), vehicle: saline",172 % of control
same,T/C,"endpoint: median survival time, dose: 2.0 mg/kg/injection, schedule: Q01DX009 (sc), vehicle: Klucel (hydroxypropylcellulose) (HPC)",121 % of control
same,T/C,"endpoint: median survival time, dose: 4.0 mg/kg/injection, schedule: Q01DX009 (ip), vehicle: saline",188 % of control
same,T/C,"endpoint: median survival time, dose: 8.0 mg/kg/injection, schedule: Q01DX009 (ip), vehicle: saline",611 % of control
same,T/C,"endpoint: median survival time, dose: 8.0 mg/kg/injection, schedule: Q01DX009 (sc), vehicle: Klucel (hydroxypropylcellulose) (HPC)",168 % of control
same,T/C,"endpoint: median survival time, dose: 16.0 mg/kg/injection, schedule: Q01DX009 (sc), vehicle: Klucel (hydroxypropylcellulose) (HPC)",110 % of control
same,T/C,"endpoint: median survival time, dose: 32.0 mg/kg/injection, schedule: Q01DX009 (sc), vehicle: Klucel (hydroxypropylcellulose) (HPC)",89 % of control
CNC(=O)Oc1ccccc1-c1ccccc1,T/C,"endpoint: mean survival time, dose: 100.0 mg/kg/injection, schedule: Q01DX001 (ip), vehicle: carboxymethylcellulose (CMC)",100 % of control
same,T/C,"endpoint: mean survival time, dose: 200.0 mg/kg/injection, schedule: Q01DX001 (ip), vehicle: carboxymethylcellulose (CMC)",100 % of control
same,T/C,"endpoint: mean survival time, dose: 400.0 mg/kg/injection, schedule: Q01DX001 (ip), vehicle: carboxymethylcellulose (CMC)",96 % of control
